Source: patent US6673813B2, “Methods for identifying and treating resistant tumors” (priority 1994, dated 2004)

How the values were obtained:
HL60/ADR cells = assay: Assay for reversal of Adriamycin resistance (cell growth, MTS); assay type: cell-based, human; conditions: test compound in addition to Adriamycin, samples diluted to 20 μM, 25 μl per 100 μl well, 72 hours
Description: HL60/ADR is a continuous cell line, which was selected for Adriamycin™ resistance by culturing HL60, a human acute myeloblastic leukemia cell line, in increasing concentrations of Adriamycin™ until a highly resistant variant was attained. (McGrath, T., et al., Biochem. […] Marquardt, D. and Center, M. S., Cancer Res., 52: 3157, (1992); and Marquardt, D., et al., Cancer Res., 50: 1426, (1990)). […] Cells were harvested; washed twice with assay medium (same as culture media); counted; and diluted to 2×10^5 cells/ml in assay medium. Fifty μl of cells were aliquoted into wells of a 96 well tissue culture plate. One column of each 96 well plate served as a negative control and received assay medium containing no cells. Test compounds and references compounds were dissolved in dimethyl sulfoxide (DMSO) at a concentration of 5 mM. […] Assay standards were run in quadruplicate. 25 μl of 0.4% DMSO was added to four wells as a solvent control. […] The plates were incubated at 37° Centigrade for 72 hours in a humidified incubator with a 5% CO2 atmosphere. A CellTiter96 Aqueous Assay Kit (Promega) was used to measure cell viability and vitality via […] of a tetrazolium salt. The assay was performed in accordance with the vendors instructions, which required 2 ml of MTS reagent being mixed with 0.1 ml of PMS reagent and 20 μl of this solution was added to each well. The plates were incubated for 3 hours at 37° C. Absorbance was determined at 490 nm using a microtitre plate reader. The ability of a test compound to reverse the resistance of HL60/ADR cells to Adriamycin was determined by comparison of the absorbance of the wells containing a test compound in addition to Adriamycin with the absorbance of wells containing Adriamycin without a test compound. Controls were used to eliminate background and to ensure the results were not artifactual. The results of the assay are expressed as percent inhibition of cell growth.

| SMILES | melting point | % Inhibition (percent inhibition of cell growth) (HL60/ADR cells) [%] |
| --- | --- | --- |
| CCCc1c(OCCCCOc2cc(O)c(-c3ccc(F)cc3)cc2CC)cccc1Oc1ccccc1C(=O)O (hydrate or solvate) [Example 9, 2-[2-Propyl-3-[4-[2-ethyl-5-hydroxy-4-(4-fluorophenyl)-phenoxy]butoxy]phenoxy]benzoic acid sesquihydrate] | 65 to 68 °C | – |
| CCCCc1c(OCCCOc2cc(O)c(-c3ccc(F)cc3)cc2CC)cccc1Oc1ccccc1C(=O)O (hydrate or solvate) [Example 11, 2-[2-Butyl-3-[3-[2-ethyl-5-hydroxy-4-(4-fluorophenyl)phenoxy]propoxy]phenoxy]benzoic acid hydrate] | 62 to 64 °C | – |
| CCCc1c(OCCCOc2cc(O)c(-c3ccc(F)cc3)cc2CC)cccc1S(=O)(=O)c1ccccc1C(=O)O (hydrate or solvate) [Example 17, 2-[2-Propyl-3-[3-[2-ethyl-4-(4-fluorophenyl)-5-hydroxyphenoxy]propoxy]phenylsulfonyl]benzoic acid hydrate] | 80 to 90 °C | – |
| CCCc1c(OCCCOc2cc(O)c(-c3ccc(F)cc3)cc2CC)ccc2c1OC(C(=O)O)CC2 (stereo not drawn) [Example 1, 8-Propyl-7-[3-[4-(4-fluorophenyl)-2-ethyl-5-hydroxyphenoxy]propoxy]-3,4-dihydro-2H-1-benzopyran-2-carboxylic acid] | – | 54 |
| CCCc1c(OCCCOc2cc(O)c(-c3ccccc3)cc2CC)cccc1Oc1ccccc1C(=O)[O-].[Na+] [Example 2, 2-[2-Propyl-3-[3-(2-ethyl-5-hydroxy-4-phenylphenoxy)-propoxy]phenoxy]benzoic acid sodium salt hemihydrate] | – | 63 |
| CCCc1c(OCCCOc2cc([O-])c(-c3ccccc3)cc2CC)cccc1Oc1ccccc1-c1nnn[n-]1.[Na+].[Na+] [Example 3, 5-Ethyl-4-[3-[2-propyl-3-[2-(2H-tetrazol-5-yl)phenoxy]phenoxy]propoxy][1,1′-biphenyl]-2-ol disodium salt sesquihydrate] | – | 55 |
| CCCc1c(OCCCOc2cc([O-])c(-c3ccccc3)cc2CC)cccc1Oc1cccc(F)c1C(=O)[O-].[Na+].[Na+] [Example 4, 2-Fluoro-6-[2-propyl-3-[3-(2-ethyl-5-hydroxy-4-phenylphenoxy)propoxy]phenoxy]benzoic acid disodium salt] | – | 38 |
| CCCc1c(OCCCOc2cc(O)c(-c3ccc(F)cc3)cc2CC)cccc1Oc1ccccc1C(=O)[O-].[Na+] [Example 5, 2-[2-Propyl-3-[3-[2-ethyl-4-(4-fluorophenyl)-5-hydroxyphenoxy]propoxy]phenoxy]benzoic acid sodium salt] | – | 23 |
| CCCc1c(OCCCOc2cc(O)c(-c3ccc(F)cc3)cc2CC)cccc1Oc1cccc(F)c1C(=O)[O-].[Na+] [Example 6, 2-Fluoro-6-[2-propyl-3-[3-[2-ethyl-5-hydroxy-4-(4-fluorophenyl)phenoxy]propoxy]phenoxy]benzoic acid disodium salt hydrate] | – | 35 |
| CCCc1c(OCCCOc2cc(O)c(-c3ccc(F)cc3)cc2CC)cccc1Oc1cc(F)ccc1C(=O)O [Example 7, 4-Fluoro-2-[2-propyl-3-[3-[2-ethyl-5-hydroxy-4-(4-fluorophenyl)phenoxy]propoxy]phenoxy]benzoic acid] | 62 to 64 °C | 72 |
| CCCc1c(OCCCCCOc2cc(O)c(-c3ccc(F)cc3)cc2CC)cccc1Oc1ccccc1C(=O)O [Example 8, 2-[2-Propyl-3-[5-[2-ethyl-5-hydroxy-4-(4-fluorophenyl)phenoxy]pentoxy]phenoxy]benzoic acid] | 65 °C (dec.) | 57 |
| CCCc1c(OCCCCOc2cc(O)c(-c3ccc(F)cc3)cc2CC)cccc1Oc1ccccc1C(=O)O [Example 9, 2-[2-Propyl-3-[4-[2-ethyl-5-hydroxy-4-(4-fluorophenyl)-phenoxy]butoxy]phenoxy]benzoic acid sesquihydrate] | – | 61 |
| CCc1cc(-c2ccc(F)cc2)c(O)cc1OCCCOc1cccc(Oc2ccccc2C(=O)O)c1CC(C)C [Example 10, 2-[2-(2-Methylpropyl)-3-[3-[2-ethyl-5-hydroxy-4-(4-fluorophenyl)phenoxy]propoxy]phenoxy]benzoic acid] | 48 to 49 °C | 49 |
| CCCCc1c(OCCCOc2cc(O)c(-c3ccc(F)cc3)cc2CC)cccc1Oc1ccccc1C(=O)O [Example 11, 2-[2-Butyl-3-[3-[2-ethyl-5-hydroxy-4-(4-fluorophenyl)phenoxy]propoxy]phenoxy]benzoic acid hydrate] | – | 47 |
| CCc1cc(-c2ccc(F)cc2)c(O)cc1OCCCOc1cccc(Oc2ccccc2C(=O)O)c1Cc1ccccc1 [Example 12, 2-[2-(Phenylmethyl)-3-[3-[2-ethyl-5-hydroxy-4-(4-fluorophenyl)phenoxy]propoxy]phenoxy]benzoic acid] | – | 62 |
| CCCc1c(OCCCOc2cc(O)c(-c3ccc(F)cc3)cc2CC)cccc1C(=O)c1ccccc1C(=O)O [Example 13, 2-[2-Propyl-3-[3-[2-ethyl-5-hydroxy-4-(4-fluorophenyl)phenoxy]propoxy]benzoyl]benzoic acid] | – | 64 |
| CCCc1c(Cc2ccccc2C(=O)O)cccc1OCCCOc1cc(O)c(-c2ccc(F)cc2)cc1CC [Example 14, 2-[[2-Propyl-3-[3-[2-ethyl-5-hydroxy-4-(4-fluorophenyl)phenoxy]propoxy]phenyl]methyl]benzoic acid] | 150 to 151 °C | 58 |
| CCCc1c(OCCCOc2cc(O)c(-c3ccc(F)cc3)cc2CC)cccc1Sc1ccccc1C(=O)O [Example 15, 2-[2-Propyl-3-[3-[2-ethyl-4-(4-fluorophenyl)-5-hydroxyphenoxy]propoxy]thiophenoxy]benzoic acid] | 153 to 155 °C | 73 |
| CCCc1c(OCCCOc2cc(O)c(-c3ccc(F)cc3)cc2CC)cccc1[S+]([O-])c1ccccc1C(=O)O (stereo not drawn) [Example 16, 2-[2-Propyl-3-[3-[2-ethyl-4-(4-fluorophenyl)-5-hydroxyphenoxy]propoxy]phenylsulfinyl]benzoic acid] | > 100 °C (dec.) | 35 |
| CCCc1c(OCCCOc2cc(O)c(-c3ccc(F)cc3)cc2CC)cccc1S(=O)(=O)c1ccccc1C(=O)O [Example 17, 2-[2-Propyl-3-[3-[2-ethyl-4-(4-fluorophenyl)-5-hydroxyphenoxy]propoxy]phenylsulfonyl]benzoic acid hydrate] | – | 25 |
| CCCc1c(OCCCOc2ccc(C(C)=O)c(OC)c2CCC)ccc2c1OC(C(=O)O)CC2 (stereo not drawn) [Example 18, 8-Propyl-7-[3-[4-acetyl-3-methoxy-2-propylphenoxy]propoxy]-3,4-dihydro-2H-1-benzopyran-2-carboxylic acid] | – | 67 |
